US20250122193A1, “NOVEL PYRIDOCARBAZOLIUM COMPOUNDS AND MEDICAL USES THEREOF” (MyCural Therapeutics, priority 2021, published 2025)

Experiments:
MYC protein turnover = molecular target: T1, MYC protein turnover (Homo sapiens, UniProt P01106); test: cycloheximide (CHX) chase of MYC; type: cell-based; conditions: wt HCT116 cells, 5 μM
T1 construct: Endogenous MYC was immunoprecipitated and detected by western blot analysis; endogenous in cells; host or cells: MCF7, HeLa, P493-6, HCT116 (WT, FBW7-/-, p53-/-)
T1 sequence (P01106 16-454): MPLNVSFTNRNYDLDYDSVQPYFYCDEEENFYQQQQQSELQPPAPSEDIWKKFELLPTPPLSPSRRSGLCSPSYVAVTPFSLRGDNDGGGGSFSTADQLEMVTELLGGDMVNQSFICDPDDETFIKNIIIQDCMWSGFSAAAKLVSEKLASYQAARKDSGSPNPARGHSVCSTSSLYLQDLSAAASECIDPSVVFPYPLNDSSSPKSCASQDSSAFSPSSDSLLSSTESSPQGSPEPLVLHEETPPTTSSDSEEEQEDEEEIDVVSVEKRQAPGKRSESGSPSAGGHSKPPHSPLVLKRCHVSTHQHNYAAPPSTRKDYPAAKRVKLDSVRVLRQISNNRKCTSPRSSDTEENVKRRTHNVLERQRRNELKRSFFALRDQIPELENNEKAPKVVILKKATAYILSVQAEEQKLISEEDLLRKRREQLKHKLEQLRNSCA
Procedure: FIG. 2: MYCMI-7 downregulates MYC and MYCN protein expresión. A) Steady state levels of MYC protein in MCF7 cells after 17 hours exposure to indicated concentrations MYCMI-7 or ellipticine B) MYC mRNA expression in MCF7 cells after treatment with MYCMI-7 for various time points. C) Steady state levels of MYC protein in different HCT116 cell lines (WT, FBW7−/− or p53−/−) after 17 hours exposure to 5 μM MYCMI-7. Endogenous MYC was immunoprecipitated and detected by western blot analysis. D) Cycloheximide (CHX) chase in HCT116 cells. Cells were subjected to 5 μM MYCMI-7 30 min prior cycloheximide addition. Cells were harvested after the indicated time points, MYC was immunoprecipitated using N262 antibody and the MYC levels analyzed using western blot (C33 antibody). E) CHX chase after MYCMI-7 treatment performed as in (D) using Fbxw7-deficient HCT116 cells. F) Stable expression of wt, T58A or S62A MYC in HO15.19 MYC−/− cells. The cells were treated with 5 μM MYCMI-7 overnight, and MYC expression was analyzed by western blot. G) Cartoon showing a linear structural representation of wt MYC and indicated mutants. […]
For western blot equal amounts of proteins ([…]) were separated on a 4-12% SDS-PAGE gel. Proteins were transferred to Immobilion-P membrane (Millipore) and detected by immunostaining and chemoluminescence (Immobilion western HRP substrate; Millipore). […]

A375 melanoma cells = test: Apo-Tox Glo Triplex assay, A375; type: cell-based; conditions: 3 days of treatment
Procedure: (§1) FIG. 4: MYCMI-7 induces apoptosis in malignant cells and growth arrest in normal cells. A) Cell cycle distribution analysis by flow cytometry of MYC-regulated P493-6 cells and normal rat embryo fibroblasts (REFs). Left panel, P493-6 synchronized in G0 by 24 hours treatment of […] doxycycline. Doxycycline was removed and the cells were harvested 48 hours after the addition of fresh medium containing DMSO or 5 μM MYCMI-7. Right panel, flow cytometry analysis of normal REFs treated with DMSO or 5 μM MYCMI-7. B) Apoptosis assay using the Cell Death Detection ELISA^plus kit. Left panel, immortalized Rat1 fibroblasts with different MYC status after 24 hours of 5 μM MYCMI-7 treatment, middle panel and right panels, normal REFs and normal peripheral blood lymphocytes, respectively, after 24 and 48 hours of 5 μM MYCMI-7 treatment. C) Measurement of viability and apoptosis by Apo-Tox Glo Triplex assay in A375 melanoma cells after 3 days of treatment with MYCMI-7 with the indicated concentrations. […] E) NHDFs treated with 3 μM MYCMI-7 for 72 hrs. Viability was measured by trypan blue exclusion assay. F) Cell growth measured with Cyt62 assay of primary normal human epidermal melanocytes (NHEM) treated for 72 hours with MYCMI-7, G) Viability measured by trypan blue exclusion assay of NHEM after treatment for 72 hours with MYCMI-7.

[1] = tested on: Normal human dermal fibroblasts (NHDF); test: resazurin, cell count and trypan blue, NHDF; type: cell-based
Procedure: as §1

cyclin E = cyclin E protein expression; type: cell-based
Procedure: For western blot equal amounts of proteins ([…]) were separated on a 4-12% SDS-PAGE gel. Proteins were transferred to Immobilion-P membrane (Millipore) and detected by immunostaining and chemoluminescence (Immobilion western HRP substrate; Millipore). For immunoprecipitations 500-1000 μg of protein was used. […] Briefly, cells were crosslinked with 1% formaldehyde on ice for 6 minutes. Nuclear chromatin was sonicated on ice to fragments from 0.3 kb to 0.5 kb. Nuclear chromatin equivalent to 2.5×10^7 cells was immunoprecipitated with 2 μg antibody.

[2] = tested on: MDA-MB-231 xenograft tumors; test: MDA-MB-231 xenograft
[3] = tested on: MCF-7 breast carcinoma cells; test: RNA-seq gene set enrichment analysis; conditions: 5 μM, 24 hrs
[4] = tested on: MYC/BCL-XL-driven acute myeloblastic leukemia
[5] = 6.25 mg/kg intratumoral twice weekly
[6] = endpoint, compared with vehicle

CCN(CC)CC[n+]1ccc2c(C)c3[nH]c4ccccc4c3c(C)c2c1 [MYCMI-7, 2-(5,11-Dimethyl-6H-25-pyrido[4,3-b]carbazol-2-yl)-N,N-diethylethanamine bromide]
turnover rate of MYC (CHX chase) (MYC protein turnover): increased | GI50 (A375 melanoma cells): nanomolar range | apoptosis (caspase activation) (A375 melanoma cells): induced apoptosis in a dose-dependent manner | cell number and metabolic activity normalized to DMSO ([1]; 3 days, low micromolar concentrations): lower overall cell number and metabolic activity | cell viability (trypan blue) ([1]; 72 hrs): unaffected | protein expression of cyclin E (cyclin E): unaffected | survival [2, 5]: significantly increased survival | tumor growth [2, 5]: slowed down considerably | H&E staining of tumor areas ([2]; mouse, in vivo): extensive necrosis/apoptosis | MYC expression in tumors (IHC) ([2]; mouse, in vivo): reduced expression of MYC | TUNEL staining ([2]; mouse, in vivo): increased TUNEL staining | caspase 3 expression in tumors (IHC) ([2]; mouse, in vivo): increased caspase 3 expression | proliferation and microvascular density (Ki67, CD31) ([2]; mouse, in vivo): reduced proliferation and microvascular density | GSEA of differentially expressed genes: MYC and E2F target genes [3]: downregulation | body weight ([4]; 12.5 mg/kg daily i.p.): retained their weight | mouse survival ([4]; 12.5 mg/kg daily i.p.): no significant difference | side effects ([4]; 12.5 mg/kg daily i.p.): no signs of severe side effects | GFP positive leukemic cells in bone marrow ([4]; 12.5 mg/kg daily i.p., day 15): undetectable | leukemic cells in bone marrow ([4]; 12.5 mg/kg daily i.p., end point (20+/−4 days)): around 10% | spleen structure ([4]; endpoint, compared to vehicle): retained a more normal spleen structure | MYC expression in leukemic cells (IHC) [4, 6]: strongly reduced | cleaved caspase 3 and H3K9me3 in leukemic spleens (western blot) [4, 6]: increased expression
